# Laboratory results as given in US10457677B2 (priority 2015, dated 2019).
# Biological target: purified human recombinant ATM (ataxia telangiectasia mutated), full length (Homo sapiens (Human), UniProt Q13315)
# Assay: ATM kinase assay - determination of ATM inhibition (IC50 ATM), TR-FRET
# Format: biochemical
# Settings: 10 μM ATP, substrate p53
# Method: ATM kinase assay—determination of ATM inhibition (IC50 ATM):
# The IC50 value was determined with the aid of a biochemical ATM kinase assay. The assay consists of two steps: the enzymatic reaction and the detection step. Firstly, ATM (ataxia telangiectasia mutated) protein and the test substance are incubated at different concentrations with addition of substrate protein p53 and ATP. ATM mediates the phosphorylation of p53 at several positions, including at amino acid S15. The amount of phosphorylated p53 is determined with the aid of specific antibodies and the TR-FRET technique. The enzymatic ATM assay is carried out as TR-FRET (HTRF™, Cisbio Bioassays) based 384-well assay. In the first step, purified human recombinant ATM (human ATM, full length, GenBank ID NM_000051, expressed in a mammal cell line) is incubated in assay buffer for 15 minutes with the ATM inhibitor in various concentrations and without test substance as negative or neutral control. The assay buffer comprises 25 mM HEPES pH 8.0, 10 mM Mg(CH3COO)2, 1 mM MnCl2, 0,1% BSA and 0,01% Brij® 35, 5 mM dithiothreitol (DTT). […] In the second step, purified human recombinant cmyc-labelled p53 (human p53, full length, GenBank ID BC003596, expressed in Sf21 insect cells) and ATP are added, and the reaction mixture is incubated at 22° C. for 30-35 minutes. The pharmacologically relevant assay volume is 5 μl. […] The enzymatic reaction is stopped by addition of EDTA. […] After incubation, usually for 2 hours (between 1.5 and 15h), for signal development, the plates are analysed in a plate reader (EnVision, PerkinElmer) using TRF mode (and with laser excitation). […] The measurement data were processed by means of Genedata Screener software.
# Chain of purified human recombinant ATM (ataxia telangiectasia mutated), full length (Q13315 whole entry, change not shown): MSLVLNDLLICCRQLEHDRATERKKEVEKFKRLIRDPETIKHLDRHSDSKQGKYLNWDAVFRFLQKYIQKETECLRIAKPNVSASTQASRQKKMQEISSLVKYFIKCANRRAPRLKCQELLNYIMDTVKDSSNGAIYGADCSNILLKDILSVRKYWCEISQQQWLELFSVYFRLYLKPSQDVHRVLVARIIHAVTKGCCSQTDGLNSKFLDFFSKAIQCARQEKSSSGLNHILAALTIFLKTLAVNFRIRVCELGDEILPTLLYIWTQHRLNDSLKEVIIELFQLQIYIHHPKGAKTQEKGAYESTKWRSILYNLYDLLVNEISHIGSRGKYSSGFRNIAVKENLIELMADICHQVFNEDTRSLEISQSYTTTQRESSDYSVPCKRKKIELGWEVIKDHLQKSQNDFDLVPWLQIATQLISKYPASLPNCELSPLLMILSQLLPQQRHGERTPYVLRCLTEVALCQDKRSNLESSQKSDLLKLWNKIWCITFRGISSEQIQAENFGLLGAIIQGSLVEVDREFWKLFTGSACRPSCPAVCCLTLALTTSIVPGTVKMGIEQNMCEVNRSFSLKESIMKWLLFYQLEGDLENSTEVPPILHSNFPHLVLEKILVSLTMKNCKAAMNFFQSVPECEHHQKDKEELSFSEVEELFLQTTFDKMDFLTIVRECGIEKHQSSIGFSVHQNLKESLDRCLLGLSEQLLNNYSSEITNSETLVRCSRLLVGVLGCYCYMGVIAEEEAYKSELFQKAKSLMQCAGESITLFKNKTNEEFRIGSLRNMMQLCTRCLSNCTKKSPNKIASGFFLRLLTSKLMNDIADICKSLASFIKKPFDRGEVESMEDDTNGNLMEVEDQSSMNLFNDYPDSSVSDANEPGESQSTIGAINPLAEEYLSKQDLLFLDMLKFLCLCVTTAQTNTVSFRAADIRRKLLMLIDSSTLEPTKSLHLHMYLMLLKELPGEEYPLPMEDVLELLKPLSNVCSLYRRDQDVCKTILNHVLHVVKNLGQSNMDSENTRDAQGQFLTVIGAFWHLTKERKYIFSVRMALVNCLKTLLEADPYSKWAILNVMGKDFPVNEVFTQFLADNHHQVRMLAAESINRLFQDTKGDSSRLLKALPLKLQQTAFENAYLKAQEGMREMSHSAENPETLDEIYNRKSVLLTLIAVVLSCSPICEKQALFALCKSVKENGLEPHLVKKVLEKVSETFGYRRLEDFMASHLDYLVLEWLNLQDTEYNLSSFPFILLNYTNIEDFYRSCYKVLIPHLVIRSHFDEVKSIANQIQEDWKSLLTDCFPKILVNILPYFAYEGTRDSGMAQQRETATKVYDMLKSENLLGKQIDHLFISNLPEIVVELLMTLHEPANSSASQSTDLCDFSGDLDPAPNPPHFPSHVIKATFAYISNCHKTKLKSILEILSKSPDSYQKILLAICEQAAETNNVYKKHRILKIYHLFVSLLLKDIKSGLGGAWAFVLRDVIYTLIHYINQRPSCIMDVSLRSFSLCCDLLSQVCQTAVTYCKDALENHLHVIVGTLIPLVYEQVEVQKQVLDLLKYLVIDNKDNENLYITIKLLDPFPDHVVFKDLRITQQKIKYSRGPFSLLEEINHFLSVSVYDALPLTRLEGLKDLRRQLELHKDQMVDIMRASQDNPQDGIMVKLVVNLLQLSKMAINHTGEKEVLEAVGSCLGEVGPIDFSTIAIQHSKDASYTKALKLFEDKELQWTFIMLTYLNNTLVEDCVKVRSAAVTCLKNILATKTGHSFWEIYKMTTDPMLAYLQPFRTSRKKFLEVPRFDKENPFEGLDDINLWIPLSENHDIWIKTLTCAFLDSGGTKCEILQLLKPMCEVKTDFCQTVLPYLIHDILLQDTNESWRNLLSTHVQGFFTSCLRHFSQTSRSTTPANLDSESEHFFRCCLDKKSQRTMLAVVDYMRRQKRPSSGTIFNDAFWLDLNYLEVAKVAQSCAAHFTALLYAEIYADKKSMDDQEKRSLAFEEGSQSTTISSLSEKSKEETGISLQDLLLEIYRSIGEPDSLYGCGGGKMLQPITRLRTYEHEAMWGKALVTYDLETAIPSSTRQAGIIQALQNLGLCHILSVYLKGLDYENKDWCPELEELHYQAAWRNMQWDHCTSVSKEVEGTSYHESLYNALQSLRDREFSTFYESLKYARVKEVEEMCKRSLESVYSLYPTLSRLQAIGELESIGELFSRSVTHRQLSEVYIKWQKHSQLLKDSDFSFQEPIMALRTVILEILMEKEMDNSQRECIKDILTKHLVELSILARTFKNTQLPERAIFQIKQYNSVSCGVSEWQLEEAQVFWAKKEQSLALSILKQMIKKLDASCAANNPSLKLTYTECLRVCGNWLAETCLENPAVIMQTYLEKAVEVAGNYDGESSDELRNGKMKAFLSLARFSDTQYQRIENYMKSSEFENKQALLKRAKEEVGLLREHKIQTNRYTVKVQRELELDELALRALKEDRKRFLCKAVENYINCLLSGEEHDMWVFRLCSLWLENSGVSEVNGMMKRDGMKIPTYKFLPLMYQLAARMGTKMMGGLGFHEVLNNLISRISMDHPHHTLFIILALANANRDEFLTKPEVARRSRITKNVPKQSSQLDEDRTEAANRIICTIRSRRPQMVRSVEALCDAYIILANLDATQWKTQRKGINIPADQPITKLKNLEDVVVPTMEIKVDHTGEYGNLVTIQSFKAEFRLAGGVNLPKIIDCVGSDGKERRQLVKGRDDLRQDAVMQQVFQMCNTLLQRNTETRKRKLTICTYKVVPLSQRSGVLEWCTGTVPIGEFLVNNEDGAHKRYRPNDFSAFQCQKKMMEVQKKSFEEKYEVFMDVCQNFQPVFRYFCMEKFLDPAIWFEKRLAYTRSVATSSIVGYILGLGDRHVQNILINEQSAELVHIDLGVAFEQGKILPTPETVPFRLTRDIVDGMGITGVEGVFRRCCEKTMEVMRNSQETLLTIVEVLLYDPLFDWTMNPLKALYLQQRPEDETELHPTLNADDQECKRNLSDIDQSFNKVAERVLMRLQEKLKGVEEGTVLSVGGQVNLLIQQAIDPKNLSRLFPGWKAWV
row,Structure (SMILES),IC50 [µM]
1,"COc1cc2ncc3c(c2cc1-c1cnn(C)c1)n(-c1ccc2ccccc2n1)c(=O)n3C [compound 68, 7-Methoxy-3-methyl-8-(1-methyl-1H-pyrazol-4-yl)-1-quinolin-2-yl-1,3-dihydro-imidazo[4,5-c]quinolin-2-one]",< 0.01
2,"COc1cc2ncc3c(c2cc1-c1cnn(C)c1)n(-c1ncccn1)c(=O)n3C [Compound Example 52, 7-Methoxy-3-methyl-8-(1-methyl-1H-pyrazol-4-yl)-1-pyrimidin-2-yl-1,3-dihydro-imidazo[4,5-c]quinolin-2-one]",< 0.01
3,"COc1cc2ncc3c(c2cc1-c1cnc2nc(C)[nH]c2c1)n(-c1cn(C)nc1C)c(=O)n3C [compound 154, 1-(1,3-Dimethyl-1H-pyrazol-4-yl)-7-methoxy-3-methyl-8-(2-methyl-1H-imidazo[4,5-b]pyridin-6-yl)-1,3-dihydro-imidazo[4,5-c]quinolin-2-one]",< 0.001
4,"COc1ccc(-c2cc3c(cc2OC)ncc2c3n(-c3c(F)cncc3OC)c(=O)n2C)cn1 [compound 137, 1-(3-Fluoro-5-methoxy-pyridin-4-yl)-7-methoxy-8-(6-methoxypyridin-3-yl)-3-methyl-1,3-dihydroimidazo-[4,5-c]quinolin-2-one]",< 0.01
5,"COc1cnc(-n2c(=O)n(C)c3cnc4cc(OC)c(-c5cn(C)nn5)cc4c32)c(F)c1 [compound 133, 1-(3-Fluoro-5-methoxy-pyridin-2-yl)-7-methoxy-3-methyl-8-(1-methyl-1H-1,2,3-triazol-4-yl)-1,3-dihydroimidazo[4,5-c] quinolin-2-one]",< 0.01
6,"COc1cc2ncc3c(c2cc1-c1cnn(C2CNC2)c1)n(-c1c(F)cncc1OC)c(=O)n3C [compound 208, 8-[1-(Azetidin-3-yl)-1H-pyrazol-4-yl]-1-(3-fluoro-5-methoxypyridin-4-yl)-7-methoxy-3-methyl-1H,2H,3H-imidazo[4,5-c]-quinolin-2-one]",< 0.01
7,"COc1cc2ncc3[nH]c(=O)n(-c4c(F)cncc4OC)c3c2cc1-c1cn(C)nc1C [compound 129, 8-(1,3-Dimethyl-1H-pyrazol-4-yl)-1-(3-fluoro-5-methoxy-pyridin-4-yl)-7-methoxy-1,3-dihydroimidazo[4,5-c]-quinolin-2-one]",< 0.001
8,"COc1cc2ncc3c(c2cc1-c1cnn(C)c1)n(-c1ncc(Cl)cc1F)c(=O)n3C [compound 119, 1-(5-Chloro-3-fluoropyridin-2-yl)-7-methoxy-3-methyl-8-(1-methyl-1H-pyrazol-4-yl)-1,3-dihydroimidazo[4,5-c]-quinolin-2-one]",< 0.001
9,"COc1cnc(-n2c(=O)n(C)c3cnc4cc(OC)c(-c5cnn[nH]5)cc4c32)c(F)c1 [compound 128, 1-(3-Fluoro-5-methoxy-pyridin-2-yl)-7-methoxy-3-methyl-8-(3H-1,2,3-triazol-4-yl)-1,3-dihydroimidazo-[4,5-c] quinolin-2-one]",< 0.01
10,"CCc1cnccc1-n1c(=O)n(C)c2cnc3cc(OC)c(-c4cnn(C)c4)cc3c21 [compound 156, 1-(3-Ethylpyridin-4-yl)-7-methoxy-3-methyl-8-(1-methyl-1H-pyrazol-4-yl)-1,3-dihydroimidazo[4,5-c] quinolin-2-one]",< 0.001
11,"CCn1cc(-n2c(=O)n(C)c3cnc4cc(OC)c(-c5cnn(C)c5)cc4c32)c(C)n1 [compound 130, 1-(1-Ethyl-3-methyl-1H-pyrazol-4-yl)-7-methoxy-3-methyl-8-(1-methyl-1H-pyrazol-4-yl)-1,3-dihydro-imidazo[4,5-c]quinolin-2-one]",< 0.001
12,"COc1cc2ncc3c(c2cc1-c1cnn(C)c1)n(-c1ccccn1)c(=O)n3C [Compound Example 56, 7-Methoxy-3-methyl-8-(1-methyl-1H-pyrazol-4-yl)-1-pyridin-2-yl-1,3-dihydro-imidazo[4,5-c]quinolin-2-one]",< 0.01
13,"COc1cc2ncc3c(c2cc1-c1cnn(C)n1)n(-c1cn(C)nc1C)c(=O)n3C [compound 102, 1-(1,3-Dimethyl-1H-pyrazol-4-yl)-7-methoxy-3-methyl-8-(2-methyl-2H-1,2,3-triazol-4-yl)-1,3-dihydroimidazo-[4,5-c]quinolin-2-one]",< 0.05
14,"COc1cnc(-n2c(=O)n(C)c3cnc4cc(OC)c(-c5ccc6nc[nH]c6c5)cc4c32)c(F)c1 [compound 153, 8-(3H-Benzimidazol-5-yl)-1-(3-fluoro-5-methoxypyridin-2-yl)-7-methoxy-3-methyl-1,3-dihydroimidazo[4,5-c]-quinolin-2-one]",< 0.01
15,"COc1cc2ncc3c(c2cc1-c1cnn(C)c1)n(-c1ncc(OCC2CN(C)C2)cc1F)c(=O)n3C [compound 207, 1-[3-Fluoro-5-(1-methyl-azetidin-3-ylmethoxy)-pyridin-2-yl]-7-methoxy-3-methyl-8-(1-methyl-1H-pyrazol-4-yl)-1,3-dihydro-imidazo[4,5-c]quinolin-2-one]",< 0.01
16,"COc1cc2ncc3[nH]c(=O)n(-c4ncc(F)cc4F)c3c2cc1-c1cnn(C)c1 [compound 107, 1-(3,5-Difluoropyridin-2-yl)-7-methoxy-8-(1-methyl-1H-pyrazol-4-yl)-1,3-dihydro-imidazo[4,5-c]quinolin-2-one]",< 0.001
17,"COc1cc2ncc3c(c2cc1-c1cn(C)nc1C)n(-c1ncc(OCS(C)(=O)=O)cc1F)c(=O)n3C [compound 203, 8-(1,3-Dimethyl-1H-pyrazol-4-yl)-1-(3-fluoro-5-methyl-sulfonylmethoxypyridin-2-yl)-7-methoxy-3-methyl-1,3-dihydroimidazo[4,5-c]-quinolin-2-one]",< 0.001
18,"COc1cc2ncc3c(c2cc1-c1ccn[nH]1)n(-c1c(F)cncc1OC)c(=O)n3C [compound 124, 1-(3-Fluoro-5-methoxy-pyridin-4-yl)-7-methoxy-3-methyl-8-(2H-pyrazol-3-yl)-1,3-dihydroimidazo[4,5-c] quinolin-2-one]",< 0.05
19,"CCn1cc(-c2cc3c(cc2OC)ncc2c3n(-c3c(F)cncc3OC)c(=O)n2C)c(C)n1 [compound 142, 8-(1-Ethyl-3-methyl-1H-pyrazol-4-yl)-1-(3-fluoro-5-methoxypyridin-4-yl)-7-methoxy-3-methyl-1,3-dihydroimidazo[4,5-c] quinolin-2-one]",< 0.001
20,"COc1cc2ncc3c(c2cc1-c1cnn(C)n1)n(-c1ncccc1F)c(=O)n3C [compound 158, 1-(3-Fluoropyridin-2-yl)-7-methoxy-3-methyl-8-(2-methyl-2H-1,2,3-triazol-4-yl)-1,3-dihydroimidazo-[4,5-c] quinolin-2-one]",< 0.5
21,"COc1cc2ncc3[nH]c(=O)n(-c4c(F)cncc4OC)c3c2cc1-c1cnn(C)c1 [compound 116, 1-(3-Fluoro-5-methoxy-pyridin-4-yl)-7-methoxy-8-(1-methyl-1H-pyrazol-4-yl)-1,3-dihydroimidazo[4,5-c]-quinolin-2-one]",< 0.01
22,"COc1cc2ncc3c(c2cc1-c1cn(C)nn1)n(-c1c(C)cncc1F)c(=O)n3C [compound 63, 1-(3-Fluoro-5-methylpyridin-4-yl)-7-methoxy-3-methyl-8-(1-methyl-1H-1,2,3-triazol-4-yl)-1,3-dihydroimidazo-[4,5-c] quinolin-2-one]",< 0.01
23,"COc1cnc(-n2c(=O)n(C)c3cnc4cc(OC)c(-c5ccn[nH]5)cc4c32)c(F)c1 [compound 109, 1-(3-Fluoro-5-methoxy-pyridin-2-yl)-7-methoxy-3-methyl-8-(2H-pyrazol-3-yl)-1,3-dihydroimidazo[4,5-c] quinolin-2-one]",< 0.01
24,"C=CCOc1cnc(-n2c(=O)n(C)c3cnc4cc(OC)c(-c5cnn(C)c5)cc4c32)c(F)c1 [compound 204, 1-(5-Allyloxy-3-fluoropyridin-2-yl)-7-methoxy-3-methyl-8-(1-methyl-1H-pyrazol-4-yl)-1,3-dihydroimidazo[4,5-c]-quinolin-2-one]",< 0.001
25,"COc1cc2ncc3c(c2cc1-c1n[nH]cc1C)n(-c1cn(C)nc1C)c(=O)n3C [compound 151, 1-(1,3-Dimethyl-1H-pyrazol-4-yl)-7-methoxy-3-methyl-8-(4-methyl-1H-pyrazol-3-yl)-1,3-dihydroimidazo[4,5-c] quinolin-2-one]",< 0.05
26,"COc1cc2ncc3c(c2cc1-c1cnn[nH]1)n(-c1c(F)cncc1OC)c(=O)n3C [compound 134, 1-(3-Fluoro-5-methoxy-pyridin-4-yl)-7-methoxy-3-methyl-8-(3H-1,2,3-triazol-4-yl)-1,3-dihydroimidazo-[4,5-c] quinolin-2-one]",< 0.001
27,"COc1cc2ncc3c(c2cc1-c1cnn(C)c1)n(-c1ccc(C#N)cn1)c(=O)n3C [Compound Example 48, 6-[7-Methoxy-3-methyl-8-(1-methyl-1H-pyrazol-4-yl)-2-oxo-2,3-dihydroimidazo-[4,5-c]quinolin-1-yl]-nicotinonitrile]",< 0.01
28,"COc1cnc(-n2c(=O)[nH]c3cnc4cc(OC)c(-c5cnn(C)c5)cc4c32)c(F)c1 [compound 115, 1-(3-Fluoro-5-methoxy-pyridin-2-yl)-7-methoxy-8-(1-methyl-1H-pyrazol-4-yl)-1,3-dihydroimidazo[4,5-c]-quinolin-2-one]",< 0.01
